US20240409585A1, “MACROCYCLIC IMMUNOMODULATORS” (priority 2021, published 2024)
Bridge positions count the residues as written; N and C are the ends. Square brackets hold non-standard residues; d marks the D form. Peptide text beside a SMILES is read from it. * marks the point of attachment. ξ: configuration not given here. Phe(4-COOH) = N[C@@H](Cc1ccc(C(=O)O)cc1)C(=O)O; Trp(2-Me) = Cc1[nH]c2ccccc2c1C[C@H](N)C(=O)O; Phe(4-CH2NH2) = NCc1ccc(C[C@H](N)C(=O)O)cc1; Bip = N[C@@H](Cc1ccc(-c2ccccc2)cc1)C(=O)O; Phe(3-Me) = Cc1cccc(C[C@H](N)C(=O)O)c1; Phe(4-F) = N[C@@H](Cc1ccc(F)cc1)C(=O)O; Phe(2-F) = N[C@@H](Cc1ccccc1F)C(=O)O; Bta = N[C@@H](Cc1csc2ccccc12)C(=O)O; 3Pal = N[C@@H](Cc1cccnc1)C(=O)O; 4Pal = N[C@@H](Cc1ccncc1)C(=O)O; Cha = N[C@@H](CC1CCCCC1)C(=O)O; Ile(3ξ) = CCC(C)[C@H](N)C(=O)O; Thr(3ξ) = CC(O)[C@H](N)C(=O)O; Dap(Me) = CNC[C@H](N)C(=O)O; Carboxymethyl = O=C(O)C*; NMeA = CN[C@@H](C)C(=O)O; Orn = NCCC[C@H](N)C(=O)O; Dab = NCC[C@H](N)C(=O)O; Dap = NC[C@H](N)C(=O)O

The compounds below were run against T1, PE-labeled human PD-L1-Ig binding to Jurkat cell line over-expressing human PD-1 (Jurkat-PD-1) (Homo sapiens, UniProt Q15116) (assay: Jurkat-PD-1 Cell Binding High-Content Screening Assay (CBA): Method 1). Details: Jurkat-hPD-1 cells, PE-labeled PD-L1-Ig 20 nM final; read-out: Jurkat HPDL1 PD1 IC50 (uM) (Method 1).
T1 construct: expressed in transfected cells; host or cells: Jurkat
T1 sequence (Q15116 25-288): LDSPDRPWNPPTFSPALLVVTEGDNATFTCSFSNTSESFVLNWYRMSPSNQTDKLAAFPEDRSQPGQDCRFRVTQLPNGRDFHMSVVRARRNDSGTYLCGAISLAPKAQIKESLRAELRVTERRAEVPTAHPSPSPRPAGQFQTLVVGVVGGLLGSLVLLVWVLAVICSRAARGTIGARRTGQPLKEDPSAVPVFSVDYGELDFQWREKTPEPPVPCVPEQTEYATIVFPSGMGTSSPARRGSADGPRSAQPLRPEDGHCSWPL

| SMILES | IC50 [µM] |
| --- | --- |
| CC(C)C[C@@H]1NC(=O)[C@H](CCCNC(=N)N)NC(=O)[C@H](Cc2csc3ccccc23)NC(=O)[C@H](C)N(C)C(=O)[C@H](CCCNC(=N)N)NC(=O)[C@H](Cc2ccc(-c3ccccc3)cc2)NC(=O)[C@H](C(C)C)NC(=O)[C@H](Cc2c[nH]c3ccccc23)NC(=O)[C@H](CC(=O)O)NC(=O)[C@H](Cc2ccc(O)cc2)NC(=O)[C@H](CC(N)=O)NC(=O)CSC[C@@H](C(=O)N[C@@H](C)C(N)=O)NC(=O)[C@H](CO)NC(=O)[C@H](C(C)C)NC1=O [Compound 1055] ({CH2CO}-NYDWV[Bip]R[NMeA][Bta]RLVSCA-NH2; thioether N-14) | 0.11 |
| CC(C)C[C@@H]1NC(=O)[C@H](CCN)NC(=O)[C@@H](CC(C)C)NC(=O)[C@H](C)N(C)C(=O)[C@H](Cc2cnc[nH]2)NC(=O)[C@H](Cc2ccc(-c3ccccc3)cc2)NC(=O)[C@H](C(C)C)NC(=O)[C@H](Cc2c[nH]c3ccccc23)NC(=O)[C@H](CC(=O)O)NC(=O)[C@H](Cc2ccccc2F)NC(=O)[C@H](CN)NC(=O)CSC[C@@H](C(=O)N[C@@H](C)C(N)=O)NC(=O)[C@H]([C@@H](C)O)NC(=O)[C@H](C(C)C)NC1=O [Compound 1425] ({CH2CO}-[Dap][Phe(2-F)]DWV[Bip]H[NMeA][dL][Dab]LVTCA-NH2; thioether N-14) | 0.14 |
| Cc1cccc(C[C@@H]2NC(=O)[C@H](CC(=O)O)NC(=O)[C@H](Cc3ccc(OCC(=O)O)cc3)NC(=O)[C@H]([C@@H](C)O)NC(=O)CSC[C@@H](C(N)=O)NC(=O)[C@H](CCC(N)=O)NC(=O)[C@H](C(C)C)NC(=O)[C@H](CC3CCCCC3)NC(=O)[C@H](CCN)NC(=O)[C@@H](CC(C)C)NC(=O)[C@H](C)N(C)C(=O)[C@H](Cc3ccc(OCC(=O)O)cc3)NC(=O)[C@H](Cc3ccc(-c4ccccc4)cc3)NC(=O)[C@H](Cc3ccc(OCC(=O)O)cc3)NC2=O)c1 [Compound 1671] ({CH2CO}-TY(Carboxymethyl)D[Phe(3-Me)]Y(Carboxymethyl)[Bip]Y(Carboxymethyl)[NMeA][dL][Dab][Cha]VQC-NH2; thioether N-14) | 0.09 |
| CC(C)C[C@@H]1NC(=O)[C@H](CCN)NC(=O)[C@@H](CC(C)C)NC(=O)[C@H](C)N(C)C(=O)[C@H](CCCNC(=N)N)NC(=O)[C@H](Cc2ccc(-c3ccccc3)cc2)NC(=O)[C@H](C(C)C)NC(=O)[C@H](Cc2c[nH]c3ccccc23)NC(=O)[C@H](CC(=O)O)NC(=O)[C@H](Cc2cnc[nH]2)NC(=O)[C@H](Cc2cccnc2)NC(=O)CSC[C@@H](C(=O)N[C@@H](C)C(N)=O)NC(=O)[C@H]([C@@H](C)O)NC(=O)[C@H](C(C)C)NC1=O [Compound 1157] ({CH2CO}-[3Pal]HDWV[Bip]R[NMeA][dL][Dab]LVTCA-NH2; thioether N-14) | 0.11 |
| Cc1[nH]c2ccccc2c1C[C@@H]1NC(=O)[C@H](CC(=O)O)NC(=O)[C@H](Cc2ccc(O)cc2)NC(=O)[C@H](Cc2ccccc2)NC(=O)CSC[C@@H](C(=O)N[C@@H](C)C(N)=O)NC(=O)[C@H]([C@@H](C)O)NC(=O)[C@H](C(C)C)NC(=O)[C@H](CC(C)C)NC(=O)[C@H](CCN)NC(=O)[C@@H](CC(C)C)NC(=O)[C@H](C)N(C)C(=O)[C@H](CCCNC(=N)N)NC(=O)[C@H](Cc2ccc(-c3ccccc3)cc2)NC(=O)[C@H](C(C)C)NC1=O [Compound 1202] ({CH2CO}-FYD[Trp(2-Me)]V[Bip]R[NMeA][dL][Dab]LVTCA-NH2; thioether N-14) | 0.73 |
| CC(C)C[C@H]1NC(=O)[C@H](C)N(C)C(=O)[C@H](C(C)C)NC(=O)[C@H](Cc2ccc(-c3ccccc3)cc2)NC(=O)[C@H](C(C)C)NC(=O)[C@H](Cc2c[nH]c3ccccc23)NC(=O)[C@H](CC(=O)O)NC(=O)[C@H](Cc2ccc(O)cc2)NC(=O)[C@H](CN)NC(=O)CSC[C@@H](C(=O)N[C@@H](C)C(N)=O)NC(=O)[C@H]([C@@H](C)O)NC(=O)[C@H](C(C)C)NC(=O)[C@H](CC2CCCCC2)NC(=O)[C@H](CCCNC(=N)N)NC1=O [Compound 1485] ({CH2CO}-[Dap]YDWV[Bip]V[NMeA][dL]R[Cha]VTCA-NH2; thioether N-14) | 0.39 |
| CC(C)C[C@@H]1NC(=O)[C@H](Cc2c[nH]c3ccccc23)NC(=O)[C@H](CC(=O)O)NC(=O)[C@H](Cc2ccc(O)cc2)NC(=O)[C@H](Cc2ccccc2)NC(=O)CSC[C@@H](C(=O)NCC(N)=O)NC(=O)[C@H](CO)NC(=O)[C@H](C(C)C)NC(=O)[C@H](CC(C)C)NC(=O)[C@H](CC(N)=O)NC(=O)[C@H](CCC(N)=O)NC(=O)[C@H](C)N(C)C(=O)[C@H](C(C)C)NC(=O)[C@H](Cc2ccc(-c3ccccc3)cc2)NC1=O [Compound 1811] ({CH2CO}-FYDWL[Bip]V[NMeA]QNLVSCG-NH2; thioether N-14) | 0.28 |
| CC(C)C[C@@H]1NC(=O)[C@H](Cc2c[nH]c3ccccc23)NC(=O)[C@H](CC(=O)O)NC(=O)[C@H](Cc2ccc(O)cc2)NC(=O)[C@H](Cc2ccccc2)NC(=O)CSC[C@@H](C(=O)N[C@@H](C)C(N)=O)NC(=O)[C@H](CO)NC(=O)[C@H](CN)NC(=O)[C@H](CC(C)C)NC(=O)[C@H](CC(N)=O)NC(=O)[C@@H](C)NC(=O)[C@H](C)N(C)C(=O)[C@H](C(C)C)NC(=O)[C@H](Cc2ccc(-c3ccccc3)cc2)NC1=O [Compound 1532] ({CH2CO}-FYDWL[Bip]V[NMeA][dA]NL[Dap]SCA-NH2; thioether N-14) | 0.17 |

The next compounds have a lower IC50 than those just listed; values first:

| IC50 [µM] | SMILES |
| --- | --- |
| 0.03 | CC(C)C[C@@H]1NC(=O)[C@H](CCCN)NC(=O)[C@@H](CC(C)C)NC(=O)[C@H](C)N(C)C(=O)[C@H](CCCNC(=N)N)NC(=O)[C@H](Cc2ccc(-c3ccccc3)cc2)NC(=O)[C@H](C(C)C)NC(=O)[C@H](Cc2c[nH]c3ccccc23)NC(=O)[C@H](CC(=O)O)NC(=O)[C@H](Cc2ccc(O)cc2)NC(=O)[C@H](Cc2ccccc2)NC(=O)CSC[C@@H](C(=O)N[C@@H](C)C(N)=O)NC(=O)[C@H]([C@@H](C)O)NC(=O)[C@H](C(C)C)NC1=O [Compound 1119] ({CH2CO}-FYDWV[Bip]R[NMeA][dL][Orn]LVTCA-NH2; thioether N-14) |
| 0.01 | Cc1cccc(C[C@@H]2NC(=O)[C@H](CC(=O)O)NC(=O)[C@H](Cc3ccc(OCC(=O)O)cc3)NC(=O)[C@H](Cc3ccncc3)NC(=O)CSC[C@@H](C(=O)NCC(N)=O)NC(=O)[C@H](CO)NC(=O)[C@H](C(C)C)NC(=O)[C@H](CC(C)C)NC(=O)[C@H](CC(N)=O)NC(=O)[C@@H](CC(C)C)NC(=O)[C@H](C)N(C)C(=O)[C@H](C(C)C)NC(=O)[C@H](Cc3ccc(-c4ccccc4)cc3)NC(=O)[C@H](CC(C)C)NC2=O)c1 [Compound 1557] ({CH2CO}-[4Pal]Y(Carboxymethyl)D[Phe(3-Me)]L[Bip]V[NMeA][dL]NLVSCG-NH2; thioether N-14) |
| 0.03 | CC(C)C[C@@H]1NC(=O)[C@H](Cc2c[nH]c3ccccc23)NC(=O)[C@H](CC(=O)O)NC(=O)[C@H](Cc2ccncc2)NC(=O)[C@H](Cc2ccc(OCC(=O)O)cc2)NC(=O)CSC[C@@H](C(=O)N[C@@H](C)C(N)=O)NC(=O)[C@H](CO)NC(=O)[C@H](C(C)C)NC(=O)[C@H](CC(C)C)NC(=O)[C@H](CC(N)=O)NC(=O)[C@@H](CC(C)C)NC(=O)[C@H](C)N(C)C(=O)[C@H](C(C)C)NC(=O)[C@H](Cc2ccc(-c3ccccc3)cc2)NC1=O [Compound 1591] ({CH2CO}-Y(Carboxymethyl)[4Pal]DWL[Bip]V[NMeA][dL]NLVSCA-NH2; thioether N-14) |
| 0.01 | Cc1cccc(C[C@@H]2NC(=O)[C@H](CC(=O)O)NC(=O)[C@H](Cc3ccc(C(=O)O)cc3)NC(=O)[C@H](Cc3ccc(F)cc3)NC(=O)CSC[C@@H](C(=O)N[C@@H](CCN)C(N)=O)NC(=O)[C@H](CCC(=O)O)NC(=O)[C@H](C(C)O)NC(=O)[C@H](CC3CCCCC3)NC(=O)[C@H](CCN)NC(=O)[C@@H](CC(C)C)NC(=O)[C@H](C)N(C)C(=O)[C@H](Cc3ccc(C(=O)O)cc3)NC(=O)[C@H](Cc3ccc(-c4ccccc4)cc3)NC(=O)[C@H](Cc3ccc(C(=O)O)cc3)NC2=O)c1 (stereo partly drawn) [Compound 2209] ({CH2CO}-[Phe(4-F)][Phe(4-COOH)]D[Phe(3-Me)][Phe(4-COOH)][Bip][Phe(4-COOH)][NMeA][dL][Dab][Cha][Thr(3ξ)]EC[Dab]-NH2; thioether N-14) |
| 0.02 | CC(C)C[C@H]1NC(=O)[C@H](C)N(C)C(=O)[C@H](C(C)C)NC(=O)[C@H](Cc2ccc(-c3ccccc3)cc2)NC(=O)[C@H](C(C)C)NC(=O)[C@H](Cc2c[nH]c3ccccc23)NC(=O)[C@H](CC(=O)O)NC(=O)[C@H](Cc2ccc(CN)cc2)NC(=O)[C@H](Cc2ccc(OCC(=O)O)cc2)NC(=O)CSC[C@@H](C(N)=O)NC(=O)[C@H](CO)NC(=O)[C@H](C(C)C)NC(=O)[C@H](CC2CCCCC2)NC(=O)[C@H](CC(N)=O)NC1=O [Compound 2243] ({CH2CO}-Y(Carboxymethyl)[Phe(4-CH2NH2)]DWV[Bip]V[NMeA][dL]N[Cha]VSC-NH2; thioether N-14) |
| 0.03 | CC(C)C[C@@H]1NC(=O)[C@H](CCN)NC(=O)[C@@H](CC(C)C)NC(=O)[C@H](C)N(C)C(=O)[C@H](CCCNC(=N)N)NC(=O)[C@H](Cc2ccc(-c3ccccc3)cc2)NC(=O)[C@H](C(C)C)NC(=O)[C@H](Cc2c[nH]c3ccccc23)NC(=O)[C@H](CC(=O)O)NC(=O)[C@H](Cc2ccc(OCC(=O)O)cc2)NC(=O)[C@H](Cc2cccnc2)NC(=O)CSC[C@@H](C(=O)N[C@@H](C)C(N)=O)NC(=O)[C@H]([C@@H](C)O)NC(=O)[C@H](C(C)C)NC1=O [Compound 1158] ({CH2CO}-[3Pal]Y(Carboxymethyl)DWV[Bip]R[NMeA][dL][Dab]LVTCA-NH2; thioether N-14) |
| 0.01 | CCC(C)[C@@H]1NC(=O)[C@H](Cc2ccc(-c3ccccc3)cc2)NC(=O)[C@H](C(C)C)NC(=O)[C@H](Cc2c[nH]c3ccccc23)NC(=O)[C@H](CC(=O)O)NC(=O)[C@H](Cc2ccc(O)cc2)NC(=O)[C@H](CNC)NC(=O)CSC[C@@H](C(=O)N[C@@H](C)C(N)=O)NC(=O)[C@H](C(C)O)NC(=O)[C@H](C(C)C)NC(=O)[C@H](CC2CCCCC2)NC(=O)[C@H](CCN)NC(=O)[C@@H](CC(C)C)NC(=O)[C@H](C)N(C)C1=O (stereo partly drawn) [Compound 2050] ({CH2CO}-[Dap(Me)]YDWV[Bip][Ile(3ξ)][NMeA][dL][Dab][Cha]V[Thr(3ξ)]CA-NH2; thioether N-14) |
